Data: patent US8163898B2, “4-sulfonylpiperidine derivatives” (MSD K. K., priority 2007, dated 2012)

Target: T1, human LCE (Homo sapiens, UniProt Q9H5J4)
T1 sequence (Q9H5J4 1-265): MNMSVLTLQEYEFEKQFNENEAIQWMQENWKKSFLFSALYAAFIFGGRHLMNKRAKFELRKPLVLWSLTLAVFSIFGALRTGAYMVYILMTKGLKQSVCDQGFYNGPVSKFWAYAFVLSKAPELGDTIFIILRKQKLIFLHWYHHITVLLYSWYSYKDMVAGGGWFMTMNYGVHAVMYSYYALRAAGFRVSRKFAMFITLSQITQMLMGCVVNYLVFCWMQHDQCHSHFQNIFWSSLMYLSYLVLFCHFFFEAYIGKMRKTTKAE
Experiment: LCE enzyme activity inhibition test
Format: biochemical
Conditions: not given
Protocol: Pharmacological Test Example 1 (LCE Enzyme Activity Inhibition Test)
A test compound was dissolved in dimethylsulfoxide (DMSO) to 10 mM, and further diluted with DMSO to prepare a 1000-fold concentrated solution, compared with the evaluated concentration. The LCE enzyme activity inhibition test was carried out according to a modification of the method of Moon (J. Biol. Chem., Vol. 276, pp. 45358-45366 (2001)) et al. Specifically, the diluted test compound was added to a 96-well assay plate (Corning, 96-well assay block) at 1.0 μL per well, and then 50 μL of phosphate buffer solution (100 mM potassium phosphate buffer solution (pH 6.5)), 25 μL of substrate solution (100 mM potassium phosphate buffer solution (pH 6.5)), 4.0 μM rotenone, 80 μM fatty acid free bovine serum albumin, 160 μM palmitoyl-CoA 80 μM malonyl-CoA, and 3.5 μM [^14C]-malonyl-CoA (1.92 GBq/mmol, manufactured by Amersham) were added to each well. Further, 25 μL of enzyme solution (100 mM potassium phosphate buffer solution (pH 6.5), 100 μg/mL human LCE) was added thereto. The plate was hermetically closed at the top with a seal, and then incubated with gentle agitation by shaking at 37° C. for 90 minutes. Subsequently, 100 μL of 5N HCl was added to each well, and the assay plate was agitated for 5 minutes at room temperature to stop the enzymatic reaction and also hydrolyze acyl-CoA. Subsequently, the enzymatic reaction solution of each well was adsorbed on each well of a 96-well GF/C filter plate (PerkinElmer, UniFilter 96 GF/C) that had been previously dipped in water. The wells were washed with water to remove unabsorbed malonyl-CoA, and the GF/C filter plate was dried at 50° C. for 60 minutes. Subsequently, 30 μL of scintillator (PerkinElmer, MicroScinti 0) was added to each well, and the plate was sealed at the top. Using a microplate scintillation counter (PerkinElmer, TopCount), the radiation activity of the fixed [^14C] was measured and obtained as the enzyme activity. The human LCE enzyme inhibitory activity of a test compound was calculated based on the radio activity in the well containing test-compound-free DMSO as a control. Compounds of the invention were examined according to this assay.

Structure (SMILES)	IC50 [nM]
O=C(Nc1ccc(C(F)(F)F)cc1)N1C2CCC1CC(S(=O)(=O)c1ccccn1)C2 (centres unmarked) [Example 9, 3-(pyridin-2-ylsulfonyl)-N-[(4-trifluoromethyl)phenyl]-8-azabicyclo[3.2.1]octane-8-carboxamide]	92

Same assay, conditions: human LCE; [14C]-malonyl-CoA and palmitoyl-CoA substrate; 37° C. for 90 minutes; pH 6.5; read-out: IC50

Structure (SMILES)	IC50 [nM]
O=C(Nc1ccc(C(F)(F)F)cc1)N1C2CCC1CC(S(=O)(=O)c1ncccn1)C2 (centres unmarked) [Example 12, 3-(pyrimidin-2-ylsulfonyl)-N-[(4-trifluoromethyl)phenyl]-8-azabicyclo[3.2.1]octane-8-carboxamide]	100
O=C(Nc1ccc(C(F)(F)F)cc1)N1C2CCC1CC(S(=O)(=O)c1ccccc1)C2 (centres unmarked) [Example 1, 3-phenylsulfonyl-N-[(4-trifluoromethyl)phenyl]-8-azabicyclo[3.2.1]octane-8-carboxamide]	98
O=C(Nc1ccc(C(F)(F)F)cn1)N1C2CCC1CC(S(=O)(=O)c1ncccn1)C2 (centres unmarked) [Example 35]	194
O=C(Nc1ccc(C(F)(F)F)cc1)N1C2CCC1CC(S(=O)(=O)c1ccc(F)cc1)C2 (centres unmarked) [Example 2, 3-(4-fluorophenyl)sulfonyl-N-[(4-trifluoromethyl)phenyl]-8-azabicyclo[3.2.1]octane-8-carboxamide]	108
O=C(Nc1cncc(C(F)(F)F)c1)N1C2CCC1CC(S(=O)(=O)c1ccccc1)C2 (centres unmarked) [Example 33, 3-phenylsulfonyl-N-[5-(trifluoromethyl)pyridin-3-yl]-8-azabicyclo[3.2.1]octane-8-carboxamide]	103
CC(C)c1ccc(NC(=O)N2C3CCC2CC(S(=O)(=O)c2ccccn2)C3)cc1 (centres unmarked) [Example 36, N-(4-isopropylphenyl)-3-(pyridin-2-ylsulfonyl)-8-azabicyclo[3.2.1]octane-8-carboxamide]	32
CC(C)c1ccc(NC(=O)N2C3CCC2CC(S(=O)(=O)c2ncccn2)C3)cc1 (centres unmarked) [Example 37, N-(4-isopropylphenyl)-3-(pyrimidin-2-ylsulfonyl)-8-azabicyclo[3.2.1]octane-8-carboxamide]	22
CC(C)(C)c1ccc(NC(=O)N2C3CCC2CC(S(=O)(=O)c2ccccn2)C3)cc1 (centres unmarked) [Example 40, N-(4-tert-butylphenyl)-3-(pyridin-2-ylsulfonyl)-8-azabicyclo[3.2.1]octane-8-carboxamide]	125
O=C(Nc1ccc(C(F)(F)F)nc1)N1C2CCC1CC(S(=O)(=O)c1ccccc1)C2 (centres unmarked) [Example 32, 3-phenylsulfonyl-N-[6-(trifluoromethyl)pyridin-3-yl]-8-azabicyclo[3.2.1]octane-8-carboxamide]	127
CC(C)c1ccc(NC(=O)N2C3CCC2CC(S(=O)(=O)c2ccccc2)C3)cc1 (centres unmarked) [Example 16, N-(4-isopropylphenyl)-3-phenylsulfonyl-8-azabicyclo[3.2.1]octane-8-carboxamide]	29
